The text below walks through data of US6369273B1, “Chemical compounds and their use to elevate pyruvate dehydrogenase activity” (AstraZeneca AB, priority 1998, dated 2002).

For data set [1] the following is noted: after repeated administration (Evans and Stacpoole 1982); cited from earlier work.
Data set [2] relates to PDH. The note with it: cited from earlier work.

`Cc1cc(C(=O)c2ccccc2)ccc1NC(=O)C(C)(O)C(F)(F)F` (centres unmarked) came in with a melting point of 123 to 124 °C.

For the compound `O=C(O)C(Cl)Cl` [DCA, dichloroacetic acid], the plasma glucose entry in data set [1] is listed as “significant decrease in plasma glucose”. Moreover, the “activity of PDH” value in data set [2] (after acute administration in animals (Vary et al., 1988)) is given as “increases the activity of PDH”. For the same compound, the “proportion of PDH in its active form” value in data set [2] (single administration, 150 mg/kg, intraperitoneally (Vary et al. 1988)) was “increased the proportion of PDH in its active form”.

With `C[C@@](O)(C(=O)Nc1ccc(S(=O)(=O)c2ccccc2)cc1F)C(F)(F)F`, the melting point is 121 to 122 °C.

A word on the melting point: it is the temperature of the solid-liquid transition.
